Several values for one entry are separate records, joined by “and”; a condition that tells them apart may be missing. Identical values can stand only once.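 Results reflect a 48-hour exposure of cells in 96-well plates to compound at five concentrations. GI50 = concentration required for 50% inhibition of growth. The concentration for full growth arrest is given as TGI.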
What was measured:
Assay in all cases: growth of human tumour cells (NCI), 48 h
[1] = test system: A549 NSCLC
[2] = test system: HT29 colon
[3] = test system: COLO 205 colon
[4] = test system: OVCAR-5 ovarian
[5] = test system: HL-60(TB) leukemia
[6] = test system: SNB-19 CNS
[7] = test system: RPMI-8226 leukemia
[8] = test system: CAKI-1 renal
[9] = test system: SN12C renal
[10] = test system: NCI-H23 lung

Cc1cc(I)cc(CN(C)CCCCN2CCCC2)c1O
GI50 [1]: 30.7 µM | TGI [1]: > 100 µM | GI50 [2]: 5.7 µM | TGI [2]: 22 µM | GI50 [3]: 13.4 µM | TGI [3]: 26.1 µM | GI50 [4]: 27.6 µM | TGI [4]: > 100 µM | GI50 [5]: 16 µM | TGI [5]: 35.2 µM | GI50 [6]: 27.8 µM | TGI [6]: 96.1 µM | GI50 [7]: 15.1 µM | TGI [7]: 36 µM | GI50 [8]: 17.5 µM | TGI [8]: 38.9 µM | GI50 [9]: 52.2 µM | TGI [9]: > 100 µM | GI50 [10]: 34.7 µM | TGI [10]: > 100 µM

CCn1cc(C2NC(=O)c3cc(F)ccc3N2)c2cccc(Cl)c21 (stereo not given)
GI50 [1]: 0.364 µM | TGI [1]: > 100 µM | GI50 [2]: 0.276 µM | TGI [2]: > 100 µM | GI50 [3]: 0.349 µM | GI50 [4]: 0.503 µM | TGI [4]: > 100 µM | GI50 [5]: 0.121 µM | TGI [5]: 0.731 µM | GI50 [6]: 0.382 µM | TGI [6]: > 100 µM | GI50 [7]: 0.359 µM | TGI [7]: > 100 µM | GI50 [8]: 0.196 µM | TGI [8]: > 100 µM | GI50 [9]: 0.706 µM | TGI [9]: > 100 µM | GI50 [10]: 0.508 µM | TGI [10]: > 100 µM

O=C(O)c1c(Cl)c(Cl)c(Cl)c(Cl)c1-c1c2cc(I)c(=O)c(I)c-2oc2c(I)c(O)c(I)cc12
GI50 [1]: 177 µM | TGI [1]: > 200 µM | GI50 [2]: 52.6 µM | TGI [2]: 154 µM | GI50 [3]: 45.8 µM | TGI [3]: 159 µM | GI50 [4]: 41.9 µM | TGI [4]: 163 µM | GI50 [5]: 73 µM and 42.9 µM | TGI [5]: 85.2 µM | GI50 [6]: 38.2 µM and 28.6 µM | TGI [6]: 63.8 µM | GI50 [7]: 122 µM | TGI [7]: > 200 µM | GI50 [8]: 39 µM | TGI [8]: 86.7 µM | GI50 [9]: 75.5 µM and 32.6 µM | TGI [9]: 103 µM | GI50 [10]: 47 µM | TGI [10]: 125 µM

COc1cc(C(=O)c2c(-c3ccccc3)oc3ccccc23)cc(OC)c1O
GI50 [1]: 4.41 µM | TGI [1]: > 100 µM | GI50 [2]: 9.78 µM | TGI [2]: > 100 µM | GI50 [3]: 18.9 µM | TGI [3]: 43.3 µM | GI50 [4]: 4.64 µM | TGI [4]: 32.6 µM | GI50 [5]: 0.565 µM | TGI [5]: 3.85 µM | GI50 [6]: 6.76 µM | TGI [6]: 21.7 µM | GI50 [7]: 1.83 µM | TGI [7]: 12.9 µM | GI50 [8]: 0.766 µM | TGI [8]: 16 µM | GI50 [9]: 5.23 µM | TGI [9]: 26.3 µM | GI50 [10]: 3.96 µM | TGI [10]: 22.6 µM

Nc1ccccc1C#Cc1ccccc1C#CCCCCO
GI50 [1]: 18 µM | TGI [1]: 45 µM | GI50 [2]: 15.9 µM | TGI [2]: 31.1 µM | GI50 [3]: 23.7 µM | TGI [3]: 59.3 µM | GI50 [4]: 25.6 µM | TGI [4]: 64.4 µM | GI50 [5]: 23.2 µM | TGI [5]: 51.8 µM | GI50 [6]: 35.7 µM | TGI [6]: > 100 µM | GI50 [7]: 29.8 µM | TGI [7]: 72.2 µM | GI50 [8]: 22.8 µM | TGI [8]: 67.1 µM | GI50 [9]: 2.8 µM | TGI [9]: 9.49 µM | GI50 [10]: 24.4 µM | TGI [10]: 58.1 µM

C[C@H]1CC(=O)[C@@]2(O)C#C/C=C\C#C[C@@H]3Nc4c(cc(O)c5c4C(=O)c4ccccc4C5=O)[C@]24O[C@]314
TGI [1]: 0.82 µM | GI50 [2]: 0.0253 µM | TGI [2]: > 25 µM | TGI [3]: 0.342 µM | TGI [4]: 0.679 µM | GI50 [5]: 0.0025 µM | TGI [5]: 0.00552 µM and 0.0052 µM | TGI [6]: 0.172 µM | GI50 [7]: 0.00313 µM | TGI [7]: 0.249 µM and 0.154 µM | GI50 [8]: 0.0025 µM | TGI [8]: 0.0597 µM and 0.0512 µM | GI50 [9]: 0.0025 µM | TGI [9]: 0.0288 µM and 0.0201 µM | GI50 [10]: 0.00359 µM | TGI [10]: 0.0592 µM and 0.101 µM

COCCOC(=O)CCn1cc(F)c(=O)[nH]c1=O
GI50 [1]: 1.79 µg/mL | TGI [1]: > 150 µg/mL | GI50 [2]: 4.55 µg/mL | TGI [2]: > 150 µg/mL | GI50 [3]: 4.75 µg/mL | TGI [3]: > 150 µg/mL | GI50 [4]: 122 µg/mL | TGI [4]: > 150 µg/mL | GI50 [5]: 13.6 µg/mL | TGI [5]: > 150 µg/mL | GI50 [6]: 41.6 µg/mL | TGI [6]: > 150 µg/mL | GI50 [7]: 13.8 µg/mL | TGI [7]: > 150 µg/mL | GI50 [8]: 4.07 µg/mL | TGI [8]: > 150 µg/mL | GI50 [9]: 7.8 µg/mL | TGI [9]: > 150 µg/mL | GI50 [10]: 17.2 µg/mL | TGI [10]: > 150 µg/mL

COc1cc(SC)ccc1C(=O)N1CCCC(C)C1 (stereo not given)
GI50 [1]: > 100 µM | TGI [1]: > 100 µM | GI50 [2]: > 100 µM | TGI [2]: > 100 µM | GI50 [3]: > 100 µM | TGI [3]: > 100 µM | GI50 [4]: > 100 µM | TGI [4]: > 100 µM | GI50 [5]: 75.2 µM | TGI [5]: > 100 µM | GI50 [6]: > 100 µM | TGI [6]: > 100 µM | GI50 [7]: 69.2 µM | TGI [7]: > 100 µM | GI50 [8]: > 100 µM | TGI [8]: > 100 µM | GI50 [9]: > 100 µM | TGI [9]: > 100 µM | GI50 [10]: 70 µM | TGI [10]: > 100 µM

COc1ccc(C2CC(C)=Nc3c([nH]c(=S)[nH]c3=O)N2)cc1 (stereo not given)
TGI [1]: 40.4 µM | TGI [2]: 47.3 µM | TGI [3]: 32.7 µM | TGI [4]: 56.7 µM | TGI [5]: 40.1 µM | TGI [6]: 37.5 µM | TGI [7]: 50.3 µM | TGI [8]: 65 µM | TGI [9]: 36.7 µM | TGI [10]: 55.6 µM

CN1C=CN(Cc2ccc(-c3ccccn3)nc2)[CH-]1.CN1C=CN(Cc2ccc(-c3ccccn3)nc2)[CH-]1.[Au+3]
GI50 [1]: 8.69 µM | TGI [1]: > 100 µM | GI50 [2]: 1.96 µM | TGI [2]: > 100 µM | GI50 [3]: 0.421 µM | TGI [3]: 17.8 µM | GI50 [4]: 5.84 µM | TGI [4]: 27.3 µM | GI50 [5]: 1.22 µM | TGI [5]: 6.84 µM | GI50 [6]: 7.83 µM | TGI [6]: 40 µM | GI50 [7]: 1.34 µM | TGI [7]: 20.1 µM | GI50 [8]: 18.4 µM | TGI [8]: > 100 µM | GI50 [9]: 2.98 µM | TGI [9]: > 45 µM | GI50 [10]: 5.37 µM | TGI [10]: > 100 µM

CC(C)S(=O)(=O)n1c(N)nc2ccc(/C(=N/O)c3ccccc3)cc21
TGI [1]: 49.3 µM | TGI [2]: 36.8 µM | TGI [3]: 33.5 µM | TGI [4]: 58.7 µM | TGI [5]: 44.3 µM | TGI [6]: > 100 µM | TGI [7]: 31.8 µM | TGI [8]: 76.9 µM | TGI [9]: > 100 µM | TGI [10]: 60.8 µM

O=C(N/N=C\c1cc(Cl)ccc1O)N/N=C/c1cc(Cl)ccc1O
GI50 [1]: 0.521 µM | TGI [1]: > 100 µM | GI50 [2]: 9.57 µM | TGI [2]: > 100 µM | GI50 [3]: 4.92 µM | TGI [3]: > 100 µM | GI50 [4]: > 100 µM | TGI [4]: > 100 µM | GI50 [5]: 6.22 µM | TGI [5]: > 100 µM | GI50 [6]: > 100 µM | TGI [6]: > 100 µM | GI50 [7]: 2.79 µM | TGI [7]: > 100 µM | GI50 [8]: 3.36 µM | TGI [8]: > 100 µM | GI50 [9]: > 100 µM | TGI [9]: > 100 µM | GI50 [10]: 2.34 µM | TGI [10]: > 100 µM

Cc1cc(C(=O)NCCN(C)C)c2nc3ccccc3nc2c1
TGI [1]: > 58.7 µM | TGI [2]: 19.1 µM | TGI [3]: > 37.1 µM | TGI [4]: 15.2 µM | TGI [5]: > 100 µM | TGI [6]: 73.5 µM | TGI [7]: 41.2 µM | TGI [8]: > 46.5 µM | TGI [9]: 43.7 µM | TGI [10]: 23.6 µM

CCCCCCCCSC(SCCCCCCCC)=C1C(=O)N(c2ccccc2)N=C1C
TGI [1]: > 100 µM | TGI [2]: > 100 µM | TGI [3]: 46.5 µM | TGI [4]: > 100 µM | TGI [5]: 43.7 µM | TGI [6]: > 100 µM | TGI [7]: 61.9 µM | TGI [8]: 90.7 µM | TGI [9]: > 100 µM | TGI [10]: 95.1 µM

Source: PubChem BioAssay (NCI)
